The values below come from US12516019B2, “Amphoteric compounds” (Eastman Chemical Company, priority 2015, dated 2026).

Holding throughout (type): physicochemical
Series [1] can be described thus: Water solubility: heated to a clear solution, cooled to ambient temperature. The conditions noted are these: ambient temperature after heating to a clear solution. On the procedure:
To a vial was added 5.00 g of 3-((lauryloxycarbonylpropyl)-dimethylammonio)propanesulfonate and 10.00 g of water. The mixture was heated to 100° C. for an hour to afford a clear solution. The mixture was then allowed to cool to ambient temperature, at which point it was still homogeneous with no precipitate or gel.
To a vial was added 5.00 g of 3-((lauryloxycarbonylmethyl)-dimethylammonio)propanesulfonate and 45.00 g of water. The mixture was heated to 100° C. for an hour to afford a clear solution. The mixture was then allowed to cool to ambient temperature resulting in a white solid. The solid was recovered by filtration and dried in a vacuum oven at 55° C. in vacuo with a nitrogen sweep overnight to afford 4.58 g of 3-((lauryloxycarbonylmethyl)-dimethylammonio)propanesulfonate.
To a vial was added 10.00 g of 3-((4-laurylamino-4-oxobutyl)-dimethylammonio)propanesulfonate and 20.00 g of water. The mixture was heated to 100° C. for an hour to afford a clear solution. The mixture was then allowed to cool to ambient temperature, at which point it was still homogeneous with no precipitate or gel.
The solubility of 3-((2-laurylamino-2-oxoethyl)dimethylammonio)-propanesulfonate was determined by mixing 5.00 g of material with 45.00 g of water and heating to 85° C. for 1 h to afford a clear 10 wt % solution. The material was allowed to cool to ambient temperature to afford a precipitate. The precipitate was filtered, and the resulting solid was dried in vacuo at 50° C. with a nitrogen sweep for 3 days to afford 4.54 g of recovered 3-((2-laurylamino-2-oxoethyl)dimethylammonio)propanesulfonate.

Series [2] in a line: Critical micelle concentration from surface tension (Wilhelmy plate, K100C Tensiometer). The conditions noted are these: deionized water, ambient temperature. On the procedure: The critical micelle concentration (CMC) is an important characteristic of a surfactant, and the CMC values were determined for the amphoteric compounds of formula 1. The CMC is defined as the concentration at which micelle formation first begins, and for surface tension determination of CMC, is typically assigned as the concentration of the intersection of two straight lines through the data, where the first line is the linear portion of the initial decline in surface tension with increasing surfactant concentration, and the second is the line of constant surface tension.
The critical micelle concentration was determined from plots of surface tension as a function of the logarithm of active surfactant concentration. Surface tension was measured via the Wilhelmy plate technique. In this method, the downward force of a rigorously clean plate probe that just contacts the liquid surface of the test sample is measured, and the surface tension is calculated from knowledge of the contact angle the liquid makes with the probe surface and the length of the probe plate.
A K100C Tensiometer (Kruss GmbH) was used to measure surface tension of solutions in a glass sample vessel. All measurements were made under ambient temperature conditions.
The tensiometer was equipped with a computer-controlled microdispensing and aspirating system to automate surfactant concentration adjustments of the test solution while maintaining constant solution volume between successive measurements. A roughened platinum plate probe was used. Cleanliness of probe, sample vessel, and microdispensing system was verified after cleaning between samples by measuring the surface tension of pure deionized water run through the system as a control.
100 mL of the 1 mg/L surfactant solution was added to the clean sample vessel and placed in the instrument. The plate probe was rinsed with deionized water and flame treated to combust off residual organic impurities, then mounted in position in the tensiometer. The experiment was initiated and run through the LabDesk version 3.2.2 (Kruss GmbH) software.
The surface tension measurements were run sequentially (and automatically) from most dilute to most concentrated by incrementally injecting known volume aliquots of the 10,000 mg/L surfactant solution into the sample, homogenizing the sample after injection by stirring for 30 seconds via a magnetic stir bar in the solution, and then aspirating out equal volume that was added to the sample vessel to keep the total sample volume constant for each measurement.
The sample vessel was then automatically moved into measurement position, and the surface tension measurement was made and recorded. This sequence was repeated until all concentrations had been measured.
The active surfactant concentration range spanned from 1 mg/L to 5000 mg/L over 50 concentration increments, equally spaced on a logarithmic scale over the full range of concentrations measured.
The sample at each concentration was measured 10 times, and the average of the 10 measures was plotted against the logarithm of the surfactant concentration.
After completing the full range of concentrations, the software provided best-fit lines to estimate CMC, and these regression lines were manually adjusted as needed to give the broadest range of linear behavior for each line.

A short description of series [3]: Foam height test, Standard Test Method for Foaming Properties of Surface-Active Agents (ASTM 1173-07). The conditions noted are these: 49° C.; for Foam height at time t = 0: t = 0 min; for Foam height at time t = 1: t = 1 min; for Foam height at time t = 2: t = 2 min; for Foam height at time t = 3: t = 3 min; for Foam height at time t = 4: t = 4 min; for Foam height at time t = 5: t = 5 min. An excerpt: The Standard Test Method for Foaming Properties of Surface-Active Agents (ASTM 1173-07) for 0.1 wt % and 1.0 wt % was used to determine the foaming properties of the amphoteric compounds of the formula 1 described herein. This method generates foam under low-agitation conditions and is generally used for moderate- and high-foam surfactants. This test gathers data on initial foam height and foam decay. Foam decay provides information on foam stability.
The apparatus for carrying out this test includes a jacketed column and a pipet. The jacketed column serves as a receiver, while the pipet delivers the surface-active solution.
Solutions of each surface-active agent to be measured were prepared in borosilicate glass jars a day ahead of time, using ambient temperature ingredients, and were slowly rolled overnight to homogenize. The solutions were then removed from the rollers and equilibrated in a constant temperature bath (49° C.+/−1° C.) for at least 1 hour before measurement. The solution of the amphoteric compound to be tested was added to the receiver (50 mL) and to the pipet (200 mL). The pipet was positioned above the receiver and opened. As the solution fell and made contact with the solution in the receiver, foam was generated. When the pipet was empty, the time was noted and an initial foam height was recorded. The foam height was recorded each minute for five minutes. Exact size specifications for the glassware can be found in ASTM 1173-07. The foam height results for each amphoteric compound 1 and representative standards are listed below in Tables 1 (0.1% concentration) and 2 (1% concentration).

The compound `CCCCCCCCCCCCOC(=O)C[N+](C)(C)CCCS(=O)(=O)[O-]` [Comparative Example 2, 3-((Lauryloxycarbonylmethyl)dimethylammonio)-propanesulfonate, reference compound] showed a solubility in water in series [1] of 0.92 wt %.

In series [1], `CCCCCCCCCCCCNC(=O)C[N+](C)(C)CCCS(=O)(=O)[O-]` [Comparative Example 4, 3-((2-Laurylamino-2-oxoethyl)dimethylammonio)-propanesulfonate, reference compound] displayed a solubility in water of 1.02 wt %.

`CCCCCCCCCCCCOC(=O)CCC[N+](C)(C)CCCS(=O)(=O)[O-]` [Example 5, 3-(3-(Lauryloxycarbonylpropyl)dimethylammonio)-propanesulfonate]: in series [2], the “Critical micelle concentration (CMC)” value is given as 53.9 mg/L. Moreover, the solubility in water result in series [1] was “greater than or equal to 33 wt %”. Moreover, in series [3] (1 g/L (0.1 weight %)), the “Foam height at time t = 0” value was found to be 157 mm, the “Foam height at time t = 1” value was found to be 154 mm, the “Foam height at time t = 2” value came out at 151 mm and the “Foam height at time t = 3” value is 149 mm. In series [3] (1 g/L (0.1 weight %)), the “Foam height at time t = 4” value was determined as 147 mm and the “Foam height at time t = 5” value is 146 mm. In series [3] (10 g/L (1.0 weight %)), the “Foam height at time t = 0” value is listed as 170 mm, the “Foam height at time t = 1” value came to 166 mm, the “Foam height at time t = 2” value stood at 161 mm and the “Foam height at time t = 3” value came out at 158 mm. Moreover, in series [3] (10 g/L (1.0 weight %)), the “Foam height at time t = 4” value was 154 mm and the “Foam height at time t = 5” value is on record as 152 mm.

Regarding `CCCCCCCCCCCCNC(=O)CCC[N+](C)(C)CCCS(=O)(=O)[O-]` [Example 14, 3-((4-Laurylamino-4-oxobutyl)dimethylammonio)-propanesulfonate], the “Critical micelle concentration (CMC)” value in series [2] amounted to 133.9 mg/L. For the same compound, the solubility in water result in series [1] was “greater than or equal to 33 wt %”. Also, in series [3] (1 g/L (0.1 weight %)), the “Foam height at time t = 0” value worked out at 143 mm, the “Foam height at time t = 1” value is 133 mm, the “Foam height at time t = 2” value is 123 mm and the “Foam height at time t = 3” value was 108 mm. For the same compound, in series [3] (1 g/L (0.1 weight %)), the “Foam height at time t = 4” value is reported as 95 mm and the “Foam height at time t = 5” value was found to be 75 mm. Further, in series [3] (10 g/L (1.0 weight %)), the “Foam height at time t = 0” value was 157 mm, the “Foam height at time t = 1” value was 145 mm, the “Foam height at time t = 2” value came out at 137 mm and the “Foam height at time t = 3” value was found to be 129 mm. In series [3] (10 g/L (1.0 weight %)), the “Foam height at time t = 4” value stood at 122 mm and the “Foam height at time t = 5” value is on record as 116 mm.

With “cocamidopropyl betaine [reference compound]”, in series [2], the “Critical micelle concentration (CMC)” value is listed as 12.7 mg/L. For the same compound, in series [3] (1 g/L (0.1 weight %)), the “Foam height at time t = 0” value is given as 160 mm, the “Foam height at time t = 1” value turned out to be 159 mm, the “Foam height at time t = 2” value was 158 mm and the “Foam height at time t = 3” value was 158 mm. Also, in series [3] (1 g/L (0.1 weight %)), the “Foam height at time t = 4” value is given as 158 mm and the “Foam height at time t = 5” value is 158 mm. Moreover, in series [3] (10 g/L (1.0 weight %)), the “Foam height at time t = 0” value is given as 174 mm, the “Foam height at time t = 1” value was 172 mm, the “Foam height at time t = 2” value is 171 mm and the “Foam height at time t = 3” value turned out to be 171 mm. Besides, in series [3] (10 g/L (1.0 weight %)), the “Foam height at time t = 4” value is 170 mm and the “Foam height at time t = 5” value was 170 mm.
